According to PubChem BioAssay AID2060507 (Molecular Pharmacology Branch, DTP, NCI, 2025):
Where “and” joins values, the source holds several entries; their conditions need not be identical. Equal entries are not always repeated.

System: 519858-162-T-J1-PDC complex spheroid viability
Experiment: Anticancer human tumor 519858-162-T-J1-PDC patient-derived colon adenocarcinoma cell line growth inhibition [GQUAD]
Details: for viability, T/C: stronger effect = lower value; active means viability on the fitted dose curve at most 10% of control; inactive means the rest
Text: DNA G-quadruplex Stabilizer Agents in Combinations in Complex Spheroids
A high-throughput screen of multi-cell type tumor spheroids was designed to identify active combinations of DNA G-quadruplex stabilizer agents and targeted small molecules. Complex spheroids include a stromal component modeled by human endothelial cells (HUVEC) and fibroblasts modeled by human mesenchymal stem cells (MSCs). The concentration ranges selected for each drug and investigational agent were based upon clinically achievable concentrations if the clinical Cmax of the agent was known.
Compounds. The drugs and investigational agents: pidnarulex (CX-5461; NSC782164), APTO-253 (NSC789042), BRACO-19 (NSC847499), peposertib (NSC802822), ceralasertib (NSC780249), elimusertib (NSC800525), camonsertib (NSC841442), AZD-1390 (NSC803789), olaparib (NSC753686), talazoparib (NSC767125), ART-558 (NSC835418), sotorasib (NSC818433), MRTX-1133 (NSC836407), SN-38 (NSC673596), topotecan (NSC609699), etoposide (NSC141540), doxorubicin (NSC123127), gemcitabine (NSC613327), 5-fluorouracil (NSC19893), paclitaxel (NSC125973), vemurafenib (NSC761431), panobinostat (NSC761190), R-306465 (JNJ-16241199; NSC773264), adavosertib (NSC754352), TP-3654 (NSC805149), carboplatin (NSC241240), KSQ-4279 (NSC840948), and staurosporine (NSC755774) were obtained from the National Cancer Institute (NCI) Developmental Therapeutics Program Chemical Repository (34). The FDA-approved anticancer drug set is available from the NCI Developmental Therapeutics Program. […] The stock solutions were prepared in dimethyl sulfoxide (DMSO, Sigma-Aldrich, St. Louis, MO, cat. D2650) at 800-fold the tested concentration and stored at -70 degrees C prior to their use. All drugs and investigational agents were tested over a range starting from a high concentration at or near the clinical Cmax and decreasing in half-log increments. If the clinical Cmax for an agent had not been determined, the highest concentration tested was 10 microM.
2.3 Cell Culture. All cells were maintained in an incubator at 37 degrees C and 5% CO2 with 95% humidity. The PDC lines were cultured according to standard operating procedures established by the NCI PDMR. All PDCs were thawed and cultured in Matrigel-coated flasks prepared with a working solution of 1X Ham's F-12 nutrient mix, without supplementation (Invitrogen, cat. 11765054), 100 U/mL penicillin-streptomycin (Invitrogen, cat. 15140122), and 2.5% Matrigel (Corning Inc., cat. 354248) for the first three passages. The 857933-349-R-J2-PDC line was cultured in 6C/Colon 1B media, which includes advanced DMEM/F-12 (Thermo Fisher Scientific, cat. 12634028), 10 mM HEPES (Thermo Fisher Scientific, cat. 15630080), 1X GlutaMAX supplement (Thermo Fisher Scientific, cat. 35050061), 0.1 mg/mL primocin (InvivoGen, cat. ant-pm-2), 10% defined fetal bovine serum, heat inactivated (HyClone Laboratories Inc., cat. SH30070.03HI), 50% L-WRN conditioned media (ATCC, cat. CRL-3276), 1.25 mM N-Acetyl-L-cysteine (Sigma-Aldrich, cat. A9165), 10 mM nicotinamide (Sigma-Aldrich, cat. N0636), 1X B-27 supplement (Thermo Fisher Scientific, cat. 17504044), 1X N-2 supplement (Thermo Fisher Scientific, cat. 17502048), 10 microM Y-27632 dihydrochloride (Tocris Bioscience, cat. 1254), and 50 ng/mL human EGF recombinant protein (Thermo Fisher Scientific, cat. PHG0311). The 485176-168-R4-J1-PDC line was cultured in Panc media, which includes all 6C/Colon 1B media components plus 100 ng/mL human FGF-10 (Thermo Fisher Scientific, cat. 100-26), 500 nM SB-431542 (Selleckchem, cat. S1067), and gastrin (Tocris, cat. 3006).
[…]

[1] = curve of first compound, second compound 0.0316 µM
[2] = curve of first compound, second compound 0.1 µM
[3] = curve of first compound, second compound 0.316 µM
[4] = curve of first compound, second compound 1 µM
[5] = curve of first compound, second compound 3.16 µM
[6] = curve of first compound, second compound 10 µM
[7] = second compound 0.0316 µM, first compound 0.0316 µM
[8] = second compound 0.0316 µM, first compound 0.1 µM
[9] = second compound 0.0316 µM, first compound 0.316 µM
[10] = second compound 0.0316 µM, first compound 1 µM
[11] = second compound 0.0316 µM, first compound 3.16 µM
[12] = second compound 0.0316 µM, first compound 10 µM
[13] = second compound 0.1 µM, first compound 0.0316 µM
[14] = second compound 0.1 µM, first compound 0.1 µM
[15] = second compound 0.1 µM, first compound 0.316 µM
[16] = second compound 0.1 µM, first compound 1 µM
[17] = second compound 0.1 µM, first compound 3.16 µM
[18] = second compound 0.1 µM, first compound 10 µM
[19] = second compound 0.316 µM, first compound 0.0316 µM
[20] = second compound 0.316 µM, first compound 0.1 µM
[21] = second compound 0.316 µM, first compound 0.316 µM
[22] = second compound 0.316 µM, first compound 1 µM
[23] = second compound 0.316 µM, first compound 3.16 µM
[24] = second compound 0.316 µM, first compound 10 µM
[25] = second compound 1 µM, first compound 0.0316 µM
[26] = second compound 1 µM, first compound 0.1 µM
[27] = second compound 1 µM, first compound 0.316 µM
[28] = second compound 1 µM, first compound 1 µM
[29] = second compound 1 µM, first compound 3.16 µM
[30] = second compound 1 µM, first compound 10 µM
[31] = second compound 3.16 µM, first compound 0.0316 µM
[32] = second compound 3.16 µM, first compound 0.1 µM
[33] = second compound 3.16 µM, first compound 0.316 µM
[34] = second compound 3.16 µM, first compound 1 µM
[35] = second compound 3.16 µM, first compound 3.16 µM
[36] = second compound 3.16 µM, first compound 10 µM
[37] = second compound 10 µM, first compound 0.0316 µM
[38] = second compound 10 µM, first compound 0.1 µM
[39] = second compound 10 µM, first compound 0.316 µM
[40] = second compound 10 µM, first compound 1 µM
[41] = second compound 10 µM, first compound 3.16 µM
[42] = second compound 10 µM, first compound 10 µM
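Further: spheroids exposed to compounds for 7 days.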

COc1ccc([C@@H](O)c2cc(-c3ncnc4cc(N5CCOCC5)ccc34)c(F)cc2Cl)nn1 + Cc1[nH]c2ccc(F)cc2c1-c1nc2c3cccnc3c3ncccc3c2[nH]1
> 10 µM: IC50 [1] | IC50 [2] | IC50 [3] | IC50 [4]
inactive: viability, T/C [7] 79% | viability, T/C [8] 99.7% | viability, T/C [9] 71.4% | viability, T/C [10] 86.4% | viability, T/C [11] 74.1% | viability, T/C [12] 53% | viability, T/C [13] 82.9% | viability, T/C [14] 92.8% | viability, T/C [15] 88.3% | viability, T/C [16] 72.6% | viability, T/C [17] 85.1% | viability, T/C [18] 54.7% | viability, T/C [19] 96% | viability, T/C [20] 104% | viability, T/C [21] 64% | viability, T/C [22] 72.7% | viability, T/C [23] 89.4% | viability, T/C [24] 70.2% | viability, T/C [25] 123% | viability, T/C [26] 90.4% | viability, T/C [27] 87% | viability, T/C [28] 77.5% | viability, T/C [29] 97.4% | viability, T/C [30] 42.8% | viability, T/C [31] 66.9% | viability, T/C [32] 87.5% | viability, T/C [33] 84.9% | viability, T/C [34] 64.9% | viability, T/C [35] 65.5% | viability, T/C [36] 37.9% | viability, T/C [37] 58.5% | viability, T/C [38] 86.9% | viability, T/C [39] 58.9% | viability, T/C [40] 82.2% | viability, T/C [41] 70.5% | viability, T/C [42] 49.5%
9.78 µM: IC50 [6]
5.82 µM: IC50 [5]

CC[C@@]1(O)C(=O)OCc2c1cc1n(c2=O)Cc2cc3c(CN(C)C)c(O)ccc3nc2-1
inactive: viability, T/C (compound 0.000999 µM) 86.1% and 63.7% | viability, T/C (compound 0.00316 µM) 69.6% and 123% | viability, T/C (compound 0.00999 µM) 93.4% and 97% | viability, T/C (compound 0.0316 µM) 141% and 107% | viability, T/C (compound 0.0999 µM) 90.9% and 92.7% | viability, T/C (compound 0.316 µM) 75.1% and 69.3%
> 0.316 µM: IC50 (curve of compound)

Cc1cccc(N(C)C(=O)C2C(O)CCN2c2nc(C)cc(C(F)(F)F)c2C#N)c1 (configuration not stated)
> 10 µM: IC50 (curve of compound)
inactive: viability, T/C (compound 0.0316 µM) 110% and 112% | viability, T/C (compound 0.1 µM) 88.1% and 75.7% | viability, T/C (compound 0.316 µM) 95.8% and 74.5% | viability, T/C (compound 1 µM) 111% and 116% | viability, T/C (compound 3.16 µM) 106% and 101% | viability, T/C (compound 10 µM) 93.9% and 80.4%

CC(C)(O)C1CCC(Nc2ccc3ncc(-c4cccc(C(F)(F)F)c4)n3n2)CC1 (configuration not stated)
inactive: viability, T/C (compound 0.0316 µM) 79% | viability, T/C (compound 0.1 µM) 119% and 115% | viability, T/C (compound 0.316 µM) 104% and 106% | viability, T/C (compound 1 µM) 80.3% and 73% | viability, T/C (compound 3.16 µM) 34.5% and 13.3% | viability, T/C (compound 10 µM) 48.6% and 45.4%
2.46 µM and 1.84 µM: IC50 (curve of compound)

O=c1[nH]cc(F)c(=O)[nH]1
> 10 µM: IC50 (curve of compound)
inactive: viability, T/C (compound 0.0316 µM) 91.9% | viability, T/C (compound 0.1 µM) 115% | viability, T/C (compound 0.316 µM) 95.7% | viability, T/C (compound 1 µM) 107% | viability, T/C (compound 3.16 µM) 77% | viability, T/C (compound 10 µM) 80.2%

C#Cc1c(F)ccc2cc(O)cc(-c3ncc4c(N5CC6CCC(C5)N6)nc(OCC56CCCN5CC(F)C6)nc4c3F)c12 (configuration not stated) + Cc1cnc(CNC(=O)c2c(=O)c3ccc(N4CCCN(C)CC4)nc3n3c2sc2ccccc23)cn1
inactive: viability, T/C [7] 71.2% | viability, T/C [8] 81.3% | viability, T/C [9] 83.4% | viability, T/C [10] 104% | viability, T/C [11] 78.2% | viability, T/C [12] 73.9% | viability, T/C [13] 78.8% | viability, T/C [14] 89% | viability, T/C [15] 61.9% | viability, T/C [16] 84.2% | viability, T/C [17] 70.7% | viability, T/C [18] 92% | viability, T/C [19] 65% | viability, T/C [20] 88% | viability, T/C [21] 73.3% | viability, T/C [22] 66.6% | viability, T/C [23] 83.1% | viability, T/C [24] 49.2% | viability, T/C [25] 70.1% | viability, T/C [26] 56.7% | viability, T/C [27] 63.5% | viability, T/C [28] 55.9% | viability, T/C [29] 48.8% | viability, T/C [30] 46.4% | viability, T/C [31] 46.6% | viability, T/C [32] 63.5% | viability, T/C [33] 53.4% | viability, T/C [34] 53.1% | viability, T/C [35] 34.5% | viability, T/C [36] 42% | viability, T/C [37] 32.5% | viability, T/C [38] 55.2% | viability, T/C [39] 48.4% | viability, T/C [40] 53.4% | viability, T/C [41] 52.4% | viability, T/C [42] 41.7%
> 10 µM: IC50 [1] | IC50 [2]
1.27 µM: IC50 [5]
3.61 µM: IC50 [4]
< 0.0316 µM: IC50 [6]
9.62 µM: IC50 [3]
